The values below are quoted from earlier work in patent US20060229344A1, “Method of treating amyotrophic lateral sclerosis” (priority 2005, published 2006).

Structures are written as SMILES.

The conditions of data set [1]: in vivo.
For data set [2] the following is noted: in vivo. The source holds these as a separate data set.

Regarding `Cc1cc(CCCOc2c(C)cc(-c3noc(C(F)(F)F)n3)cc2C)on1` [VP 63843, 3-[3,5-dimethyl-4-[[3-(3-methyl-5-isoxazolyl)propyl]oxy]phenyl]-5-(trifluoromethyl)-1,2,4-oxadiazole], the “absorption after oral administration” value is reported as “well absorbed”. Also, the “crossing into the central nervous system and gray matter” value in data set [1] is “crosses readily into the central nervous system and into gray matter”. In data set [2], the side-effects result is “few side-effects”, the tolerability entry is listed as “well tolerated” and the toxicity result is “little toxicity”.
